{
  "source": "patent US6399313B1",
  "about": "“AMPA-binding human GluR2 receptors” (NPS Allelix Corp., priority 1992, dated 2002)",
  "target": "T1, human GluR2B receptor (Homo sapiens, UniProt P42262)",
  "T1 construct": "transported to the cell surface in mature form, lacking the signal peptide and consisting of 862 amino acids; expressed in transfected cells; host or cells: COS-1 (ATCC CRL 1650), transient, plasmid pcDNA1/humGluR2B",
  "T1 sequence (P42262 25-883)": "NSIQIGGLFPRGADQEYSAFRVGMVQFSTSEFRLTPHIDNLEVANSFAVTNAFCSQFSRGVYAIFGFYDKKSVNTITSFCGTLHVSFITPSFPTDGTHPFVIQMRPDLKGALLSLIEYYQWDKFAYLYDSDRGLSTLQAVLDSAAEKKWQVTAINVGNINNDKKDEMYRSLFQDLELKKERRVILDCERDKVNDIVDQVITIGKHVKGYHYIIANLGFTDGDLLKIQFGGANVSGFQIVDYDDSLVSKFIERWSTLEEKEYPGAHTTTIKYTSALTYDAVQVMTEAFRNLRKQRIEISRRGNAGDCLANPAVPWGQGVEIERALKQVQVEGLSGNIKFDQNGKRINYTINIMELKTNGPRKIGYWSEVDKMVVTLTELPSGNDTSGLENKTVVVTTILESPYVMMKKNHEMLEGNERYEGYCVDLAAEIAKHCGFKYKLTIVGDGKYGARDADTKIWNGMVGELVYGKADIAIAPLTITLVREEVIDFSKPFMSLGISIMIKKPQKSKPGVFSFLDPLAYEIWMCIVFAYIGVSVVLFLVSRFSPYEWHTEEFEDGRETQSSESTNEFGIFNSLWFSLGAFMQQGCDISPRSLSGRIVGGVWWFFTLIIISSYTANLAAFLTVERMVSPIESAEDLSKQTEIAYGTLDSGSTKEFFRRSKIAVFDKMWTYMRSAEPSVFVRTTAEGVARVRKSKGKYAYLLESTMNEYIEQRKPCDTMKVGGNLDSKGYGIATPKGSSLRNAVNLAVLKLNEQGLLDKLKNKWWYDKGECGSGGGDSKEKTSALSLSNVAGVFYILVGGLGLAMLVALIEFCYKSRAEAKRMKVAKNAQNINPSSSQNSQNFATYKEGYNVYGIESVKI",
  "test": "ligand binding assay (NMDA) with membranes of cells producing human GluR2B",
  "conditions": "method for NMDA not described",
  "data": [
    {"smiles": "CN[C@H](CC(=O)O)C(=O)O", "note": "[NMDA, N-methyl-D-aspartate]", "values": [
      {"measurement": "binding to human GluR2B receptor (in words)", "result": "little or no demonstrable binding"}
    ]}
  ]
}
